# In patent US10570149B2, “Tricyclic heterocylic derivatives” (MERCK PATENT GMBH, priority 2016, dated 2020):
# Biological target: T1, ATR/ATRIP (Homo sapiens, UniProt Q13535)
# T1 construct: human ATR, full length, GenBank ID: NM_001184.3; p53: Sf21 insect cells
# Assay: ATR/ATRIP kinase assay (TR-FRET, p53 phosphorylation)
# Assay type: biochemical
# Settings: Table 1, class symbols; read-out: ATR-ATRIP IC50
# Protocol: ATR/ATRIP Kinase Assay—Measurement of ATR/ATRIP Inhibition
# The IC50 value was determined by an ATR/ATRIP enzymatic assay. The assay comprises two steps: the enzymatic reaction and the detection step. First, a mixture of ATR/ATRIP protein (Ataxia Telangiectasia and Rad3-related protein/ATR interacting protein), the compound in question at different concentrations, p53 as substrate protein and adenosine triphosphate (ATP) are incubated in assay buffer. ATR phosphorylates p53 at Ser15 and other residues. The amount of phosphorylated p53 is then detected using specific antibodies and the TR-FRET assay technology.
# In detail: The ATR/ATRIP enzymatic assay is performed as a TR-FRET-(HTRF™, Cisbio Bioassays) based 384-well assay. In a first step, purified human recombinant ATR/ATRIP (human ATR, full length, GenBank ID: NM_001184.3, and human ATRIP, full length, GenBank ID AF451323.1, co-expressed in a mammalian cell line) is incubated in assay buffer for 15 minutes at 22° C. with test compound at different concentrations or without test compound (as a negative control). The assay buffer contains 25 mM HEPES pH 8.0, 10 mM Mg(CH3COO)2, 1 mM MnCl2, 0.1% BSA, 0.01% Brij® 35, and 5 mM dithiothreitol (DTT). […] Then, in a second step, purified human recombinant cmyc-tagged p53 (human p53, full length, GenBank ID: BC003596, expressed in Sf21 insect cells) and ATP are added and the reaction mixture is incubated for 25-35 minutes, typically 25 minutes, at 22° C. The pharmacologically relevant assay volume is 5 μl. The final concentrations in the assay during incubation of the reaction mixture are 0.3-0.5 nM, typically 0.3 nM, ATR/ATRIP, 50 nM p53, and 0.5 μM ATP. The enzymatic reaction is stopped by the addition of EDTA. […] Following signal development for 2 h the plates are analyzed in an EnVision (PerkinElmer) microplate reader using the TRF mode with laser excitation. […] Data are processed employing the Genedata Screener software. In particular, IC50 values are determined in the usual manner by fitting a dose-response curve to the data points using nonlinear regression analysis.
# T1 sequence (Q13535 whole entry): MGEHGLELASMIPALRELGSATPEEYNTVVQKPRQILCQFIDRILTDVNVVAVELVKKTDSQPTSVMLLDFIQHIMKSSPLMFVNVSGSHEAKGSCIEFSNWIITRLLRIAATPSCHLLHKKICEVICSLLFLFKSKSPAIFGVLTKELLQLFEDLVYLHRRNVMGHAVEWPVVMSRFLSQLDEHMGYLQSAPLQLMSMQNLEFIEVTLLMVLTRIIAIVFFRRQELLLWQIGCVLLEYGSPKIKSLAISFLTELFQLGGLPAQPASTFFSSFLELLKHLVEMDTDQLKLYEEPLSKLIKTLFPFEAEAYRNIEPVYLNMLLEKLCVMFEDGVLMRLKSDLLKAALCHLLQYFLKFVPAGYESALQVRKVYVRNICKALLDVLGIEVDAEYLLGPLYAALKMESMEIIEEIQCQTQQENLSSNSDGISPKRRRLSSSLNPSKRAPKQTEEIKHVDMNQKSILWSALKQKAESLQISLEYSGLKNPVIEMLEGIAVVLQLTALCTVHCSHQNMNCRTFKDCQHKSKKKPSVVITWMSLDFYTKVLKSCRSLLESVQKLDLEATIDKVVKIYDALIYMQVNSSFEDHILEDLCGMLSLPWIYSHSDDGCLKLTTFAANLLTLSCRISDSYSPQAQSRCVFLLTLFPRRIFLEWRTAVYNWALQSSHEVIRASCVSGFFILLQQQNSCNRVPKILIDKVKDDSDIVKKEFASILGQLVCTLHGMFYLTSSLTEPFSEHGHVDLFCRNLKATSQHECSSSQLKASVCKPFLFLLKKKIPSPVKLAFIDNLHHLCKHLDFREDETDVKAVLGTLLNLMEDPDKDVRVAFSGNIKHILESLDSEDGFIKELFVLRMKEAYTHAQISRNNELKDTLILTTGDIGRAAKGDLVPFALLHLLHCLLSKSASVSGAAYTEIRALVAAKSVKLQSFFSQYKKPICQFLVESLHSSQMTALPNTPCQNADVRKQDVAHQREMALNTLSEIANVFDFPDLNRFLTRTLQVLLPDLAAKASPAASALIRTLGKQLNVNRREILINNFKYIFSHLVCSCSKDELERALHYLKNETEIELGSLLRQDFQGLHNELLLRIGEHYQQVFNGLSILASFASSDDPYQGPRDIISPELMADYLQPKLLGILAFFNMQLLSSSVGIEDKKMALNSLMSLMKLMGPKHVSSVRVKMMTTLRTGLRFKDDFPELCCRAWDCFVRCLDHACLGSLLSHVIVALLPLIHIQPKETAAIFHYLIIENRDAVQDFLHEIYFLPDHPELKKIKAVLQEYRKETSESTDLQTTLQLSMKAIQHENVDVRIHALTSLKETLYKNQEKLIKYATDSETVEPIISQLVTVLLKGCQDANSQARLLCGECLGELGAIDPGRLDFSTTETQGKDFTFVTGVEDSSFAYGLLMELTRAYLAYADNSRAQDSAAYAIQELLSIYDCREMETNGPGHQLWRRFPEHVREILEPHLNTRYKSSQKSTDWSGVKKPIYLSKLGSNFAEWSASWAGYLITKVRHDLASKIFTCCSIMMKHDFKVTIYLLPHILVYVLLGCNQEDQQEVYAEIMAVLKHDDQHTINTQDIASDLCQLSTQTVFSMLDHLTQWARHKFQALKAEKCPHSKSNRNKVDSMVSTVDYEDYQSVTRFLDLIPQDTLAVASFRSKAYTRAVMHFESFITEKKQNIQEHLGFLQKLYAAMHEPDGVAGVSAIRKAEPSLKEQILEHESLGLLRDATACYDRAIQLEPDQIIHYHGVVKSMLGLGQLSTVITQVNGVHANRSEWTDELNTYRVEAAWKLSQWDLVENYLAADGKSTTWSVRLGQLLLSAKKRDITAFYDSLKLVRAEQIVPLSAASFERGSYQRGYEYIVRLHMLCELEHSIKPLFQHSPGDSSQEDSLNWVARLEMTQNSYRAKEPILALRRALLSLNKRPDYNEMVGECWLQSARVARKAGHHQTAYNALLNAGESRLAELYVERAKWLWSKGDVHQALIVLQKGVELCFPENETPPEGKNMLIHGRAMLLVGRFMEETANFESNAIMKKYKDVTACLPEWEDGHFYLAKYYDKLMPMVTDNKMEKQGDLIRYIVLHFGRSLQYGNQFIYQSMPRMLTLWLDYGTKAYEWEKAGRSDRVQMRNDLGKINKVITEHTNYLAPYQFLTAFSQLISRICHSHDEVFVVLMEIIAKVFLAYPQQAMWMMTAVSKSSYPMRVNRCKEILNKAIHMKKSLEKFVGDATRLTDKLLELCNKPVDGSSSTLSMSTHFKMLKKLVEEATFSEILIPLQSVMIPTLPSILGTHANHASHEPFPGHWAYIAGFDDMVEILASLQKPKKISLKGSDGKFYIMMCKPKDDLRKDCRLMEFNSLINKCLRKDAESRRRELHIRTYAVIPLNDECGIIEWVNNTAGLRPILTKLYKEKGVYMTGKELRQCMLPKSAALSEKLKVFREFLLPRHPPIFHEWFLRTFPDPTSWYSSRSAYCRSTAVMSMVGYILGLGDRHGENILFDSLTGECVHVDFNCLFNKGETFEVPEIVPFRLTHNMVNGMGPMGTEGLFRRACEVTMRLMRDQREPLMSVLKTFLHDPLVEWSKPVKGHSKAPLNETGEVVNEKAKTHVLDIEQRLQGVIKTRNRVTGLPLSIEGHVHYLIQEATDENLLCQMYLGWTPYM
# T1 sequence (Q8WXE1 whole entry partner): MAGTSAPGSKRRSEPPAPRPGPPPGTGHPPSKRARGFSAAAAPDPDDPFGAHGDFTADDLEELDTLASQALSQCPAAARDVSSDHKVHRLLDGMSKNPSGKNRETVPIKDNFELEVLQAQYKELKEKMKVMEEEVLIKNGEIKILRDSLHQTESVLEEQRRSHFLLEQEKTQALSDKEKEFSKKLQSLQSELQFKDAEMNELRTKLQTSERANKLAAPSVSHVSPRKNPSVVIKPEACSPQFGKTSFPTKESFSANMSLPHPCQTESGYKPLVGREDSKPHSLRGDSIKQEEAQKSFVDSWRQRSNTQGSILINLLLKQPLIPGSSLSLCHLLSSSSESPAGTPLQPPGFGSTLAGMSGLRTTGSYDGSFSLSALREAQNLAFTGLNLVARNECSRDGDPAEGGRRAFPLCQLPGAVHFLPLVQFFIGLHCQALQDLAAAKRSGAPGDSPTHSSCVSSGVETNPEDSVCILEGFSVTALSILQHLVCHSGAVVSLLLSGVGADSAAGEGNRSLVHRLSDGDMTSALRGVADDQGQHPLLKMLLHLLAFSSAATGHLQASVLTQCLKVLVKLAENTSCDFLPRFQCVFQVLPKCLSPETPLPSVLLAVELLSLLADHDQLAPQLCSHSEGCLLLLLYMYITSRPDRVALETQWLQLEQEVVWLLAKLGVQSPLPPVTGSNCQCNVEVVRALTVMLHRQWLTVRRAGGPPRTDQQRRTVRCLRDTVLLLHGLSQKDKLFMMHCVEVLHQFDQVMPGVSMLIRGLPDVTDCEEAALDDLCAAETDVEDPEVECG
row,Compound,IC50 [nM]
1,"C[C@@H]1COC[C@H]2COc3c(nc(Oc4cn[nH]c4)nc3C(C)(C)S(C)(=O)=O)N21 [A80, (5R,8aS)-1-(1-methanesulfonyl-1-methyl-ethyl)-5-methyl-3-(1H-pyrazol-4-yloxy)-5,6,8a,9-tetrahydro-8H-7,10-dioxa-2,4,4b-triaza-phenanthrene]",100 to 500
2,"C[C@@H]1COC[C@H]2COc3c(nc(-c4cccc5c4CS(=O)(=O)N5)nc3C(C)(C)S(C)(=O)=O)N21 [A87, 4-[(10S,14R)-6-(2-methanesulfonylpropan-2-yl)-14-methyl-8,12-dioxa-1,3,5-triazatricyclo[8.4.0.0^{2,7}]tetradeca-2,4,6-trien-4-yl]-1,3-dihydro-2lambda6,1-benzothiazole-2,2-dione]",10 to 100
3,"COc1cnc2[nH]ccc2c1-c1nc2c(c(C(C)(C)S(C)(=O)=O)n1)OC[C@@H]1COC[C@@H](C)N21 [A88, (10S,14R)-6-(2-methanesulfonylpropan-2-yl)-4-{5-methoxy-1H-pyrrolo[2,3-b]pyridin-4-yl}-14-methyl-8,12-dioxa-1,3,5-triazatricyclo[8.4.0.0^2,7]tetradeca-2,4,6-triene]",10 to 100

# The remaining lines, values ahead:
row,IC50 [nM],Compound
1,10 to 100,"C[C@@H]1COC[C@H]2COc3c(nc(-c4ccc5ccncc5c4)nc3C(C)(C)S(C)(=O)=O)N21 [A76, (5R,8aS)-3-isoquinolin-7-yl-1-(1-methanesulfonyl-1-methyl-ethyl)-5-methyl-5,6,8a,9-tetrahydro-8H-7,10-dioxa-2,4,4b-triaza-phenanthrene]"
2,10 to 100,"C[C@@H]1COC[C@H]2COc3c(nc(-c4ccc5ncccc5c4)nc3C(C)(C)S(C)(=O)=O)N21 [A77, (5R,8aS)-1-(1-methanesulfonyl-1-methyl-ethyl)-5-methyl-3-quinolin-6-yl-5,6,8a,9-tetrahydro-8H-7,10-dioxa-2,4,4b-triaza-phenanthrene]"
3,10 to 100,"C[C@@H]1COC[C@H]2COc3c(nc(Nc4nc[nH]n4)nc3C(C)(C)S(C)(=O)=O)N21 [A79, [(5R,8aS)-1-(1-methanesulfonyl-1-methyl-ethyl)-5-methyl-5,6,8a,9-tetrahydro-8H-7,10-dioxa-2,4,4b-triaza-phenanthren-3-yl]-(1H[1,2,4]triazol-3-yl)-amine]"
4,10 to 100,"C[C@@H]1COC[C@H]2COc3c(nc(-n4ccc(O)n4)nc3C(C)(C)S(C)(=O)=O)N21 [A82, 1-[(5R,8aS)-1-(1-methanesulfonyl-1-methyl-ethyl)-5-methyl-5,6,8a,9-tetrahydro-8H-7,10-dioxa-2,4,4b-triaza-phenanthren-3-yl]-1H-pyrazol-3-ol]"
5,1 to 10,"C[C@@H]1COC[C@H]2COc3c(nc(-c4c(C#N)cnc5[nH]ccc45)nc3C(C)(C)S(C)(=O)=O)N21 [A89, 4-[(10S,14R)-6-(2-methanesulfonylpropan-2-yl)-14-methyl-8,12-dioxa-1,3,5-triazatricyclo[8.4.0.0^{2,7}]tetradeca-2,4,6-trien-4-yl]-1H-pyrrolo[2,3-b]pyridine-5-carbonitrile]"
